Laboratory results taken from US20100204203A1, “Chemical Compounds 637: Pyridopyrimidinediones as PDE4 Inhibitors” (priority 2007, published 2010).
Counter-ions that a name gives are not always drawn.

Molecular target: recombinant Human Phosphodiesterase B2 (PDE4B2) (Homo sapiens, UniProt Q07343)
Experiment: Human Phosphodiesterase B2 Radiometric Assay (yttrium silicate SPA beads, [3H]cyclic AMP)
Assay type: biochemical
Conditions: recombinant human PDE4B2, radiometric SPA assay, 8 nM [3H]cyclic AMP; read-out: PDE4B2 pIC50 (converted)
Outline: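 Compounds were preincubated 30 min at 30 °C with 0.1 mg/mL PDE4B2 in 50 mM HEPES pH 7.5, 8.3 mM MgCl2, 1.7 mM EGTA, 0.01% Brij 35. Then 8 nM [3H]cAMP was added for 20 min, stopped with yttrium silicate SPA beads plus 18 mM ZnSO4 capturing product 5′AMP; pIC50 by curve fitting.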

Sequence of recombinant Human Phosphodiesterase B2 (PDE4B2) (Q07343 1-564 isoform Q07343-2): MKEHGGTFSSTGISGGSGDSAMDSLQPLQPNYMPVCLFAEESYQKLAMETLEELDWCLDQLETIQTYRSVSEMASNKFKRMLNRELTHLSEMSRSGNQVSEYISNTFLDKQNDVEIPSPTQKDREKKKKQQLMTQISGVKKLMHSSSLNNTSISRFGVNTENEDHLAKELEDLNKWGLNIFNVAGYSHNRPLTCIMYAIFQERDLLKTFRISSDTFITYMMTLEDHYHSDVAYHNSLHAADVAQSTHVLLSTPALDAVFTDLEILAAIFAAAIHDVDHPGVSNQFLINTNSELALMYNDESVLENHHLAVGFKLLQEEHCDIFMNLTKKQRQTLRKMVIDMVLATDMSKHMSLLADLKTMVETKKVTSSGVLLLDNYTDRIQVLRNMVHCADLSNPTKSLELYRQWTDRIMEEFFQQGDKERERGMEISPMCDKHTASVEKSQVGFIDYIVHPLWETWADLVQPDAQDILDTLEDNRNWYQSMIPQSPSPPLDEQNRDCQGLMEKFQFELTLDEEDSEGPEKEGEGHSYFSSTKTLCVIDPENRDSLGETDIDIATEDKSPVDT

SMILES	IC50
Cc1cc(C(=O)N[C@H]2CC[C@@H](n3c(=O)c4cc(F)cnc4n(-c4cccc(-c5ccc(CN6CCN(C(C)C)CC6)cc5)c4)c3=O)CC2)nn1C [Example 114, N-{cis-4-[6-fluoro-1-{4′-[(4-isopropylpiperazin-1-yl)methyl]biphenyl-3-yl}-2,4-dioxo-1,4-dihydropyrido[2,3-d]pyrimidin-3(2H)-yl]cyclohexyl}-1,5-dimethyl-1H-pyrazole-3-carboxamide]	0.00794 nM
O=c1c2cc(F)cnc2n(-c2cccc(-c3ccc(O)cc3CN3CCOCC3)c2)c(=O)n1[C@H]1CC[C@@H](NCc2ncc3ccccn23)CC1 [Example 374, 6-fluoro-1-[4′-hydroxy-2′-(morpholin-4-ylmethyl)biphenyl-3-yl]-3-{cis-4-[(imidazo[1,5-a]pyridin-3-ylmethyl)amino]cyclohexyl}pyrido[2,3-d] pyrimidine-2,4(1H,3H)-dione]	0.0631 nM
O=C1CCN(Cc2cc(O)ccc2-c2cccc(-n3c(=O)n([C@H]4CC[C@@H](NCc5cn6cc(F)ccc6n5)CC4)c(=O)c4cc(F)cnc43)c2)CCN1 [Example 375, 6-fluoro-3-(cis-4-{[(6-fluoroimidazo[1,2-a]pyridin-2-yl)methyl]amino}cyclohexyl)-1-{4′-hydroxy-2′-[(5-oxo-1,4-diazepan-1-yl)methyl]biphenyl-3-yl}pyrido[2,3-d]pyrimidine-2,4(1H,3H)-dione]	0.0126 nM
O=C(N[C@H]1CC[C@@H](n2c(=O)c3cc(F)cnc3n(-c3cccc(-c4ccccc4O)c3)c2=O)CC1)c1cn2cc(F)ccc2n1 [Example 26, 6-fluoro-N-{cis-4-[6-fluoro-1-(2′-hydroxybiphenyl-3-yl)-2,4-dioxo-1,4-dihydropyrido[2,3-d]pyrimidin-3(2H)-yl]cyclohexyl}imidazo[1,2-a]pyridine-2-carboxamide.]	0.0501 nM
O=C(N[C@H]1CC[C@@H](n2c(=O)c3cc(F)cnc3n(-c3cccc(-c4ccc(CN5CCC(N6CCCCC6)CC5)cc4)c3)c2=O)CC1)c1cnc2ccccc2n1 [Example 296, N-{cis-4-[1-[4′-(1,4′-bipiperidin-1′-ylmethyl)biphenyl-3-yl]-6-fluoro-2,4-dioxo-1,4-dihydropyrido[2,3-d]pyrimidin-3(2H)-yl]cyclohexyl} quinoxaline-2-carboxamide]	0.01 nM
O=c1c2cc(F)cnc2n(-c2cccc(-c3ccc(O)cc3CN3CCCOCC3)c2)c(=O)n1[C@H]1CC[C@@H](NCc2cn3cc(F)ccc3n2)CC1 [Example 254, 6-Fluoro-3-(cis-4-{[(6-fluoroimidazo[1,2-a]pyridin-2-yl)methyl]amino}cyclohexyl)-1-[4′-hydroxy-2′-(1,4-oxazepan-4-ylmethyl)biphenyl-3-yl]pyrido[2,3-d]pyrimidine-2,4(1H,3H)-dione]	0.0316 nM
Cc1cnc(C(=O)N[C@H]2CC[C@@H](n3c(=O)c4cc(F)cnc4n(-c4cccc(-c5ccc(CN6CCN(C7CCCC7)CC6)cc5)c4)c3=O)CC2)cn1 [Example 288, N-{cis-4-[1-{4′-[(4-cyclopentylpiperazin-1-yl)methyl]biphenyl-3-yl}-6-fluoro-2,4-dioxo-1,4-dihydropyrido[2,3-d]pyrimidin-3(2H)-yl]cyclohexyl}-5-methylpyrazine-2-carboxamide]	0.0501 nM
CCCCN(C)Cc1ccc(-c2cccc(-n3c(=O)n([C@H]4CC[C@@H](NC(=O)c5cn6c(n5)CCCC6)CC4)c(=O)c4cc(F)cnc43)c2)cc1 [Example 132, N-{cis-4-[1-(4′-{[butyl(methyl)amino]methyl}biphenyl-3-yl)-6-fluoro-2,4-dioxo-1,4-dihydropyrido[2,3-d]pyrimidin-3(2H)-yl]cyclohexyl}-5,6,7,8-tetrahydroimidazo[1,2-a]pyridine-2-carboxamide]	0.0251 nM
CN1CCCN(Cc2ccc(-c3cccc(-n4c(=O)n([C@H]5CC[C@@H](NC(=O)c6nc7ccccc7[nH]c6=O)CC5)c(=O)c5cc(F)cnc54)c3)cc2)CC1 [Example 360, N-{cis-4-[6-fluoro-1-{4′-[(4-methyl-1,4-diazepan-1-yl)methyl]biphenyl-3-yl}-2,4-dioxo-1,4-dihydropyrido[2,3-d]pyrimidin-3(2H)-yl]cyclohexyl}-3-oxo-3,4-dihydroquinoxaline-2-carboxamide]	0.0398 nM
Cc1nc2ccccn2c1CN[C@H]1CC[C@@H](n2c(=O)c3cc(F)cnc3n(-c3cccc(-c4ccc(O)cc4CN4CCOCC4)c3)c2=O)CC1 [Example 370, 6-fluoro-1-[4′-hydroxy-2′-(morpholin-4-ylmethyl)biphenyl-3-yl]-3-(cis-4-{[(2-methylimidazo[1,2-a]pyridin-3-yl)methyl]amino}cyclohexyl)pyrido[2,3-d]pyrimidine-2,4(1H,3H)-dione]	0.501 nM
CN(C)CCCC(=O)N[C@H]1CC[C@@H](n2c(=O)c3cc(F)cnc3n(-c3cccc(-c4ccccc4)c3)c2=O)CC1 [Example 93, N-[cis-4-(1-biphenyl-3-yl-6-fluoro-2,4-dioxo-1,4-dihydropyrido[2,3-d]pyrimidin-3(2H)-yl)cyclohexyl]-4-(dimethylamino)butanamide]	5.01 nM
Cc1ccc(CN[C@H]2CC[C@@H](n3c(=O)c4cc(F)cnc4n(-c4cccc(-c5ccc(O)cc5CN5CCOCC5)c4)c3=O)CC2)cc1 [Example 278, 6-fluoro-1-[4′-hydroxy-2′-(morpholin-4-ylmethyl)biphenyl-3-yl]-3-{cis-4-[(4-methylbenzyl)amino]cyclohexyl}pyrido[2,3-d] pyrimidine-2,4(1H,3H)-dione]	0.794 nM
O=c1c2cc(F)cnc2n(-c2cccc(-c3ccc(O)cc3CN3CCOCC3)c2)c(=O)n1[C@H]1CC[C@@H](NCc2ccc(Cl)cc2)CC1 [Example 281, 3-{cis-4-{(4-chlorobenzyl)amino]cyclohexyl}-6-fluoro-1-[4′-hydroxy-2′-(morpholin-4-ylmethyl)biphenyl-3-yl]pyrido[2,3-d]pyrimidine-2,4(1H,3H)-dione]	1 nM
O=c1c2cc(F)cnc2n(-c2cccc(-c3ccc(O)cc3CN3CCCOCC3)c2)c(=O)n1[C@H]1CC[C@@H](NCc2cccn3ccnc23)CC1 [Example 372, 6-fluoro-1-[4′-hydroxy-2′-(1,4-oxazepan-4-ylmethyl)biphenyl-3-yl]-3-{cis-4-[(imidazo[1,2-a]pyridin-8-ylmethyl)amino]cyclohexyl}pyrido[2,3-d]pyrimidine-2,4(1H,3H)-dione]	0.631 nM
CN(C)Cc1ccc(-c2cccc(-n3c(=O)n([C@H]4CC[C@@H](NC(=O)c5ccccc5OCCO)CC4)c(=O)c4cc(F)cnc43)c2)cc1 [Example 272, N-{cis-4-[1-{4′-[(Dimethylamino)methyl]biphenyl-3-yl}-6-fluoro-2,4-dioxo-1,4-dihydropyrido[2,3-d]pyrimidin-3(2H)-yl]cyclohexyl}-2-(2-hydroxyethoxy)benzamide]	0.794 nM
CN(Cc1ccccc1)C(=O)c1cccc(-n2c(=O)n([C@H]3CC[C@@H](NC(=O)c4cn5cc(F)ccc5n4)CC3)c(=O)c3cc(F)cnc32)c1 [Example 90, N-{cis-4-[1-(3-{[benzyl(methyl)amino]carbonyl}phenyl)-6-fluoro-2,4-dioxo-1,4-dihydropyrido[2,3-d]pyrimidin-3(2H)-yl]cyclohexyl}-6-fluoroimidazo[1,2-a]pyridine-2-carboxamide]	1.26 nM
CCN(CC)CC(=O)N[C@H]1CC[C@@H](n2c(=O)c3cc(F)cnc3n(-c3cccc(-c4ccc(CN5CCN(C(C)C)CC5)cc4)c3)c2=O)CC1 [Example 241, N^2,N^2-diethyl-N-{cis-4-[6-fluoro-1-{4′-[(4-isopropylpiperazin-1-yl)methyl]biphenyl-3-yl}-2,4-dioxo-1,4-dihydro-pyrido[2,3-d]pyrimidin-3(2H)-yl]cyclohexyl} glycinamide]	0.0794 nM
NCc1cccc(-c2cccc(-n3c(=O)n([C@H]4CC[C@@H](NC(=O)c5cn6cc(F)ccc6n5)CC4)c(=O)c4cc(F)cnc43)c2)c1 [Example 31, N-{cis-4-[1-[3′-(aminomethyl)biphenyl-3-yl]-6-fluoro-2,4-dioxo-1,4-dihydropyrido[2,3-d]pyrimidin-3(2H)-yl]cyclohexyl}-6-fluoroimidazo[1,2-a]pyridine-2-carboxamide. Hydrochloride]	0.501 nM
O=C(N[C@H]1CC[C@@H](n2c(=O)c3cc(F)cnc3n(-c3cccc(-c4ccc(CN5CCCOCC5)cc4)c3)c2=O)CC1)c1cn2c(n1)CCCC2 [Example 224, N-{cis-4-[6-fluoro-1-[4′-(1,4-oxazepan-4-ylmethyl)biphenyl-3-yl]-2,4-dioxo-1,4-dihydropyrido[2,3-d]pyrimidin-3(2H)-yl]cyclohexyl}-5,6,7,8-tetrahydroimidazo[1,2-a]pyridine-2-carboxamide]	0.01 nM
CN(C)CCOc1ccc(-c2cccc(-n3c(=O)n([C@H]4CC[C@@H](NC(=O)c5cn6cc(F)ccc6n5)CC4)c(=O)c4cc(F)cnc43)c2)cc1 [Example 78, N-{cis-4-[1-{4′-[2-(dimethylamino)ethoxy]biphenyl-3-yl}-6-fluoro-2,4-dioxo-1,4-dihydropyrido[2,3-d]pyrimidin-3(2H)-yl]cyclohexyl}-6-fluoroimidazo[1,2-a]pyridine-2-carboxamide]	0.0398 nM
CN(C)C1(C(=O)N[C@H]2CC[C@@H](n3c(=O)c4cc(F)cnc4n(-c4cccc(-c5ccc(CN6CCN(CCO)CC6)cc5)c4)c3=O)CC2)CC1 [Example 211, 1-(dimethylamino)-N-{cis-4-[6-fluoro-1-(4′-{[4-(2-hydroxyethyl)piperazin-1-yl]methyl}biphenyl-3-yl)-2,4-dioxo-1,4-dihydropyrido[2,3-d]pyrimidin-3(2H)-yl]cyclohexyl}cyclopropanecarboxamide]	0.0158 nM
O=c1c2cc(F)cnc2n(-c2cccc(-c3ccccc3)c2)c(=O)n1[C@H]1CC[C@@H](NCCO)CC1 [Example 86, 1-biphenyl-3-yl-6-fluoro-3-{cis-4-[(2-hydroxyethyl)amino]cyclohexyl}pyrido[2,3-d]pyrimidine-2,4(1H,3H)-dione]	31.6 nM
